The text below walks through data of patent US9884063B2, “Amido-substituted azole compounds” (Bayer Pharma Aktiengesellschaft, priority 2014, dated 2018).

The structures appear in SMILES notation.

This assay has as its target T1, TNKS2 (Homo sapiens, UniProt Q9H2K2).
T1 sequence (Q9H2K2 1-1166): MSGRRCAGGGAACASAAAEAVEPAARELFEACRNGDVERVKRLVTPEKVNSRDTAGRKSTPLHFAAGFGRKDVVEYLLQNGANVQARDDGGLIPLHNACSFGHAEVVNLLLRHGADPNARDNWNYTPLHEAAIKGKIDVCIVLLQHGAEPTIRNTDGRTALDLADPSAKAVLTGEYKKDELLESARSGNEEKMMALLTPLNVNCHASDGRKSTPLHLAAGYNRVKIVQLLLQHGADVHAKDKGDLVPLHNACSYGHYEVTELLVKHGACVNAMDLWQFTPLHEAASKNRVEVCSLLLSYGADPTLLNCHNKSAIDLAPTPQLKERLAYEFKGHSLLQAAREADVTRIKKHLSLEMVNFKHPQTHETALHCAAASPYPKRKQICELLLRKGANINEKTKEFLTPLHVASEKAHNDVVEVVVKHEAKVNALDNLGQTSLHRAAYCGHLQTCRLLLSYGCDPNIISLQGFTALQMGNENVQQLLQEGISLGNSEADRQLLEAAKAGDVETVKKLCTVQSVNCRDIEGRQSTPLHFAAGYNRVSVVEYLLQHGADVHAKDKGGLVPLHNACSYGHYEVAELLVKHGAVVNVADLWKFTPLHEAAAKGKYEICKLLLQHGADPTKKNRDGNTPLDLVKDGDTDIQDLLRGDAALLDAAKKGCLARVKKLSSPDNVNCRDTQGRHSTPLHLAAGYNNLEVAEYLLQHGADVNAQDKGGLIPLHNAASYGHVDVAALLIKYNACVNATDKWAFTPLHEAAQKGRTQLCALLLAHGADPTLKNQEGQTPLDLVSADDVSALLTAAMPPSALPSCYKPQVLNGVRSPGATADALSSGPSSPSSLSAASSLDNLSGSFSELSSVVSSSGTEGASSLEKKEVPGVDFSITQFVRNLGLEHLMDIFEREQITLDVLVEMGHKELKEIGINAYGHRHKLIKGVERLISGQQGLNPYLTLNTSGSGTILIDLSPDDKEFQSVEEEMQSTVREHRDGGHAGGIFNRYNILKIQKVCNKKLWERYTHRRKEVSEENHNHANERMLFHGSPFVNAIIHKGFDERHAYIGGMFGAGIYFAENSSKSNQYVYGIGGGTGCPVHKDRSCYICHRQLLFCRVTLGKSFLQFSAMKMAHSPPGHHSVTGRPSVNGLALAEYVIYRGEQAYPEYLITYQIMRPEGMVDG
The assay can be described thus: Modified TNKS2 Assay 3 (BPS kit #80578, biotin-NAD+, 96 well). As to conditions: human TNKS2, BPS kit #80578, 96 well. It counts as biochemical. Summed up: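 Commercial kit assay measuring TNKS2-catalysed incorporation of biotin-labelled NAD+ into a protein substrate, detected by streptavidin-HRP chemiluminescence. Run per manufacturer's protocol; IC50 is the concentration halving the normalised signal.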

For `O=C(Nc1ccc(NC(=O)c2[nH]cnc2C(=O)NCCN2CCCCC2)cn1)c1ccc(F)cc1Cl` [Example 110, N^5-{6-[(2-chloro-4-fluorobenzoyl)amino]pyridin-3-yl}-N^4-[2-(piperidin-1-yl)ethyl]-1H-imidazole-4,5-dicarboxamide], the IC50 was 4 nM.
